These are literature values, as cited in patent publication US6166065A, “2,3-dioxabicyclo[3.3.1]nonane derivatives and antimalarial pharmaceutical compositions comprising them” (Yeda Research and Development Co., Ltd., priority 1997, dated 2000).

Series [1] relates to Plasmodium berghei (N strain). On the set-up: ED90: unit not given beside the values; ED50: unit not given here. As to conditions: against P. berghei; cited from earlier work.
For series [2] the following is noted: cited from earlier work.

SMILES strings stand for the structures.

Consider `C[C@@H]1C(=O)C[C@H]2C[C@@H]1OO[C@@]2(C)/C=C\c1ccc(C(F)(F)F)cc1C(F)(F)F` [arteflene], for which, in series [1], the ED50 was 2.7 and the ED90 was 3.9. Further, the “in vitro and in vivo antimalarial screening, clinical trials” value in series [2] is reported as “gave encouraging results”.
